ChEMBL document CHEMBL3865850, “Discovery of Potent and Selective Leads against Toxoplasma gondii Dihydrofolate Reductase via Structure-Based Design” (ACS Med Chem Lett, 2016)

Tests used:
Dihydrofolate reductase = target: T1, Dihydrofolate reductase (Homo sapiens, UniProt P00374); experiment: Inhibition of recombinant human DHFR expressed in Escherichia coli preincubated for 15 mins followed by addition of DHF as substrate and NADPH measured after 60 mins by resazurin/diaphorase coupled assay
T1 sequence (P00374 whole entry): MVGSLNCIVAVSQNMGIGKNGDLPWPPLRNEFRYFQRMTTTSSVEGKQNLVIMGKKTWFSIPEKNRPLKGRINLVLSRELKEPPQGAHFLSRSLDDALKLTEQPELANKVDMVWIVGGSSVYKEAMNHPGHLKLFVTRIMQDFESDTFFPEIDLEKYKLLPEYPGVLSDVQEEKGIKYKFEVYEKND

[1] = target: T2, Bifunctional dihydrofolate reductase-thymidylate synthase (Toxoplasma gondii, UniProt Q07422); experiment: Inhibition of Toxoplasma gondii TS-DHFR expressed in Escherichia coli BL21 preincubated for 15 mins followed by addition of DHF as substrate and NADPH measured after 60 mins by resazurin/diaphorase coupled assay; type: cell-free
T2 sequence (Q07422 whole entry): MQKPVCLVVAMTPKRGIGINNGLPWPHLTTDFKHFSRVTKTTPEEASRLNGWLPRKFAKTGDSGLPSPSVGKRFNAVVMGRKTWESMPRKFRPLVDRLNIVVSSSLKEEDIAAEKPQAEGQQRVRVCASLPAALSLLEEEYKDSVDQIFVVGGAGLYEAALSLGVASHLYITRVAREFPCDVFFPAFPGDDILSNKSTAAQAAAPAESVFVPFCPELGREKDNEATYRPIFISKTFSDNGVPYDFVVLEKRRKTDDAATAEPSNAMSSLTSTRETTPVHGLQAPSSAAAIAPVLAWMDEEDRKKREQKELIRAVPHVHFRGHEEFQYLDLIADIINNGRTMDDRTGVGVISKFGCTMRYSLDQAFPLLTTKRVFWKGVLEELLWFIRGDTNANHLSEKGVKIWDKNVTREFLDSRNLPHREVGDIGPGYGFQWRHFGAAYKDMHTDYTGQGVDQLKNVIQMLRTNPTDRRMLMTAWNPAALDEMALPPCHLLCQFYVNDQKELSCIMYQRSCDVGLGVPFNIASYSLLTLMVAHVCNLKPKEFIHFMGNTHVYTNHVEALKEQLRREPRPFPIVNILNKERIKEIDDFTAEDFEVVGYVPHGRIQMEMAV

[2] = Selectivity ratio of IC50 for human DHFR to IC50 for Toxoplasma gondii DHFR

Row | SMILES | IC50 (Dihydrofolate reductase) [µM] | IC50 [1] [µM] | Ratio IC50 [2]
1 | Nc1ncc(Cn2cc(-c3ccc(F)c(F)c3)c3cnccc32)c(N)n1 | > 10 | > 10 | –
2 | Nc1ncc(Cn2ccc3c(-c4ccc(C(F)(F)F)cc4)cccc32)c(N)n1 | > 10 | 2.7 | > 3.5
3 | Cc1nc(N)nc(N)c1C(=O)N1CCN(c2cccc(-c3ccccc3)c2)CC1 | > 10 | 2.4 | > 4
4 | Nc1ncc(CN2CCCN(C(=O)c3cccc(C(F)(F)F)c3)CC2)c(N)n1 | > 10 | > 10 | –
5 | Cc1nc(N)nc(N)c1C(=O)N1CCN(c2cc(Cl)ccc2-c2ccccn2)CC1 | > 10 | > 10 | –
6 | Nc1ncc(Cn2cc(-c3cccc(C(F)(F)F)c3)c3ccccc32)c(N)n1 | > 10 | 0.98 | > 10
7 | Nc1ncc(CN2CCN(c3cccc(C(F)(F)F)c3)CC2)c(N)n1 | 9.2 | 80 | 0.12
8 | Nc1nc2[nH]c(-c3cccc(Cl)c3)cc2c(=O)[nH]1 | > 10 | > 10 | –
9 | Cn1c(-c2cccc(Cl)c2)cc2c(Cl)nc(N)nc21 | > 10 | > 10 | –
10 | COc1ccc(-c2c[nH]c3nc(N)nc(OC(C)C)c23)cc1C(F)(F)F | > 10 | > 10 | –
11 | Cc1nc(N)nc(N)c1C(=O)N1CCN(c2cccc(-c3cccc(C#N)c3)c2)CC1 | > 10 | 3 | > 3.3
12 | Cn1c(-c2cccc(Cl)c2)cc2c(N)nc(N)nc21 | > 10 | > 10 | –
13 | Nc1ncc(CN2CCN(c3cc(Cl)ccc3OCc3cccc(C(F)(F)F)c3)CC2)c(N)n1 | > 75 | 0.95 | > 80
14 | Nc1ncc(Cn2cc(-c3cccc(Cl)c3)c3cccnc32)c(N)n1 | > 10 | > 10 | –

Stronger by IC50 (Dihydrofolate reductase), values ahead:

Row | IC50 (Dihydrofolate reductase) [µM] | SMILES | IC50 [1] [µM] | Ratio IC50 [2]
15 | 2.5 | Nc1nc(N)c(-c2c[nH]c3ccccc23)c(C2CC2)n1 | 0.91 | 2.9
16 | 2.1 | Cc1nc(N)nc(N)c1CN1CCN(c2cc(Cl)ccc2-c2ccccn2)CC1 | 0.37 | 6.5
17 | 0.092 | Nc1ncc(N2CCN(c3ccc(Cl)c(Cl)c3)CC2)c(N)n1 | 0.017 | 10
18 | 4.2 | Nc1nc(Cl)c2cc(-c3cccc(Cl)c3)[nH]c2n1 | > 10 | < 1
19 | 0.92 | Cc1nc(N)nc(N)c1CN1CCN(c2cccc(-c3cccc(C#N)c3)c2)CC1 | 0.2 | 4.7
20 | 2.8 | Cn1cc(-c2c(N)nc(N)nc2C2CC2)c2ccccc21 | 0.46 | 6.1
21 | 1.1 | Cc1nc(N)nc(N)c1CN1CCN(c2cccc(-c3ccccc3)c2)CC1 | 1.1 | 1
